Laboratory results published in US20050026827A1, “Octapeptide bombesin analogs” (Societe de Conseils de Recherches et d'Applications …, priority 1987, published 2005).
Entries after “also recorded” stand apart in the source; their conditions may differ.

What was measured:
[1] = test system: rat anterior pituitary cells; experiment: Growth hormone release from primary culture of rat anterior pituitary cells (agonist potency); format: cell-based; conditions: doses as high as 0.1 mM
Experimental: (§1) Phase 7—Inhibition of Growth Hormone Release
(§2) Anterior pituitaries from adult male rats, weighing 200-250 g and housed under controlled conditions (lights on from 0500-1900 h), were dispersed using aseptic technique by a previously described trypsin/DNase method (Heiman et al., Endocrinology, 1985, 116, 410) derived from other methods (Hoefer et al., Mol. Cell. Endocrinol., 1984, 35, 229).
(§3) The dispersed cells were diluted with sterile-filtered Dulbecco's modified Eagle medium (MEM) (Gibco Laboratories, Grand Island, N.Y. (GIBCO)), which was supplemented with fetal calf serum (2.5%; GIBCO), horse serum (3%; GIBCO), fresh rat serum (10% stored on ice for no longer than 1 h) from the pituitary donors, MEM nonessential amino acids (1%; GIBCO), gentamycin (10/mg/mL; Sigma) and nystatin (10,000 U/mL; GIBCO). The cells were counted with a hemacytometer (approximately 2,000,000 cells per pituitary) and randomly plated at a density of 200,000 per well (Co-star cluster 24; Rochester Scientific Co., Rochester, N.Y.). […]
(§4) Growth hormone (GH) in plasma and media was measured by a standard double antibody radioimmunoassay using components supplied by the NIDDK and the National Hormone and Pituitary Program, University of Maryland School of Medicine. […] Potencies and 95% confidence intervals were calculateds by 4-point assay (Pugsley, Endocrinology, 1946, 39, 161). […]

[2] = test system: rat anterior pituitary cells; format: cell-based; conditions: vs 1 nM GRF(1-29)NH2; read-out: IC50 (antagonist of GRF-stimulated GH secretion)
Experimental: as §1, §2, §3, §4

[3] = molecular target: adenylate cyclase activity in rat anterior pituitary homogenates; conditions: Robberecht et al.; cited from earlier work

Molecule	agonist activity in the potency assay (in words) [1]	IC50 [2]	IC50 [3]
CC[C@H](C)[C@H](NC(=O)[C@H](C)NC(=O)[C@H](CC(=O)O)NC(=O)[C@H](C)NC(=O)[C@@H](N)Cc1ccc(O)cc1)C(=O)N[C@@H](Cc1ccccc1)C(=O)N[C@H](C(=O)N[C@@H](CC(N)=O)C(=O)N[C@@H](CO)CN[C@@H](Cc1ccc(O)cc1)C(=O)N[C@@H](CCCNC(=N)N)C(=O)N[C@@H](CCCCN)C(=O)N[C@H](C(=O)N[C@@H](CC(C)C)C(=O)NCC(=O)N[C@@H](CCC(N)=O)C(=O)N[C@@H](CC(C)C)C(=O)N[C@@H](CO)C(=O)N[C@@H](C)C(=O)N[C@@H](CCCNC(=N)N)C(=O)N[C@@H](CCCCN)C(=O)N[C@@H](CC(C)C)C(=O)N[C@@H](CC(C)C)C(=O)N[C@@H](CCC(N)=O)C(=O)N[C@@H](CC(=O)O)C(=O)N[C@H](C(=O)N[C@@H](CCSC)C(=O)N[C@@H](CO)C(=O)N[C@@H](CCCNC(=N)N)C(N)=O)[C@@H](C)CC)C(C)C)[C@@H](C)O [VIII, [Ser^9ψ[CH2NH]Tyr^10]-GRF(1-29)NH2]	inactive; also recorded: all trace of agonist activity was lost	~10 µM	
[N-Ac-Tyr^1, D-Arg^2]GRF(1-29)NH2			~1 µM
